Experimental data as given in ChEMBL document CHEMBL4418297, “2,5,6,7-tetrasubstituted thiazolo[4,5-b]pyridine derivatives and use thereof” (2018).

System: Mus musculus
Assay: Antiinflammatory activity in iv dosed ICR mouse model of CLP-induced sepsis assessed as increase in survival rate
Assay type: functional

SMILES | Survival
CCCNc1nc2nc3c(c(-c4ccc(OC)cc4)c2s1)CCCC3 | 40%
CCCNc1nc2nc3c(c(-c4ccc(OC)cc4)c2s1)CCCCC3 | 40%
CCCNc1nc2nc3c(c(-c4ccccc4)c2s1)CCCCC3 | 40%
O=[N+]([O-])c1ccc(-c2c3c(nc4nc(N5CCCC5)sc24)CCCC3)cc1 | 40%
